Laboratory results from ChEMBL document CHEMBL1201862, “PubChem BioAssay data set” (2004).
Active and inactive are the calls of the source.

Legend:
[1] = target: T1, Replicative DNA helicase DnaB (Mycobacterium tuberculosis, UniProt P9WMR3); test: DnaB intein splicing inhibitors, dose response, biochemical, cell-free fluorescence (AID 449749); assay type: functional
T1 sequence (P9WMR3 whole entry): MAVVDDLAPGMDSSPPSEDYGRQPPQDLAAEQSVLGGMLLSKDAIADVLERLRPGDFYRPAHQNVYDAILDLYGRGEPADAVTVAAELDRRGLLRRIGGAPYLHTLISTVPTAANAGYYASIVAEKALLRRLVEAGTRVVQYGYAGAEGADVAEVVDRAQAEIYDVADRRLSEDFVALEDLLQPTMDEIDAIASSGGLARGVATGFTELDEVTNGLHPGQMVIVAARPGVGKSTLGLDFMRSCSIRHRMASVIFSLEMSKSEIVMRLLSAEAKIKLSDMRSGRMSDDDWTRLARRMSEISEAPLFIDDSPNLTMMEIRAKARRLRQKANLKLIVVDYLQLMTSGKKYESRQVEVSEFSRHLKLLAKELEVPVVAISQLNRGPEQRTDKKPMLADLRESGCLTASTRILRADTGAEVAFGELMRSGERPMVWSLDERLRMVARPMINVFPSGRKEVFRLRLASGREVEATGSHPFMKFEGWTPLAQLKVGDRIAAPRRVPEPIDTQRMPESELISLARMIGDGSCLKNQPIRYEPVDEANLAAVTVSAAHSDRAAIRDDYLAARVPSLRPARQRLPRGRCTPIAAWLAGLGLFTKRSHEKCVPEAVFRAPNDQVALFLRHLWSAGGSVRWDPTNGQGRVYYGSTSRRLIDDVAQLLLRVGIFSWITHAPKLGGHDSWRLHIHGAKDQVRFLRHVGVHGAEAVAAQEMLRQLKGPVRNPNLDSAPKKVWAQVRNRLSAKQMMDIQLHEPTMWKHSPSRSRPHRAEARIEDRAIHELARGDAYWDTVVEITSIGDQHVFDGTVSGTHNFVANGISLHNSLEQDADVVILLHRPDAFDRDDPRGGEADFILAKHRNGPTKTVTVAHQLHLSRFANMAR

Protein RecA = target: T2, Protein RecA (Mycobacterium tuberculosis, UniProt P9WHJ3); test: Fluorescence Cell-Free Homogeneous Dose Retest to Identify Inhibitors of RecA-Intein Splicing Activity. [Related pubchem assays (depositor defined):AID2097, AID2223, AID489010, AID492950]; assay type: functional
T2 sequence (P9WHJ3 whole entry): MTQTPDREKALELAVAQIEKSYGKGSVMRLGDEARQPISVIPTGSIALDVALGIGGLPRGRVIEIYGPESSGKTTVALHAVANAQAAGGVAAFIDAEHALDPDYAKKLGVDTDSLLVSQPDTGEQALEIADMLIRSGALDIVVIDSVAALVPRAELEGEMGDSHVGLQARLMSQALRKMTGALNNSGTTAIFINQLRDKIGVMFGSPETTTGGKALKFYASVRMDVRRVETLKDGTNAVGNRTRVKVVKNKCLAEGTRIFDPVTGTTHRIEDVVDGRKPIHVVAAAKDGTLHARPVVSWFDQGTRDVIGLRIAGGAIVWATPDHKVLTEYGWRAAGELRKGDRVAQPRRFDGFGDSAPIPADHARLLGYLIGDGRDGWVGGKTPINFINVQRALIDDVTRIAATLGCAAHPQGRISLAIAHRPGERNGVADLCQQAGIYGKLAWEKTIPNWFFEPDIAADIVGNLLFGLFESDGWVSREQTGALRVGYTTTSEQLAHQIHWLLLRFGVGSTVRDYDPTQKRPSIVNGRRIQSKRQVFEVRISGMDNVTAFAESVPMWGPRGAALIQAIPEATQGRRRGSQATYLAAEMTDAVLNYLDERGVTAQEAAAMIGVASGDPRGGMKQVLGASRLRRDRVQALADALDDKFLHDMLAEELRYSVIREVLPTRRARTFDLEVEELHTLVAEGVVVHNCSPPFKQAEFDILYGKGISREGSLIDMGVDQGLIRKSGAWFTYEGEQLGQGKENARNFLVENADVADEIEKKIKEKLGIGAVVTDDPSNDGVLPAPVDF

[2] = target: T3, Sentrin-specific protease 8 (Homo sapiens, UniProt Q96LD8); assay type: functional
T3 sequence (Q96LD8 whole entry): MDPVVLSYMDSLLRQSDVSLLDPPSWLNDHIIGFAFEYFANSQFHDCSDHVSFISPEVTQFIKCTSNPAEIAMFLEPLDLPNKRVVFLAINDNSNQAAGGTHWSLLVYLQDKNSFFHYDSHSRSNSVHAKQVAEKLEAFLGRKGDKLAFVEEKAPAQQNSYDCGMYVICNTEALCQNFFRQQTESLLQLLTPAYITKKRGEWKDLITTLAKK

[3] = target: T3, Sentrin-specific protease 8; assay type: functional; remark: listed apart in the source
Beta-galactosidase = Beta-galactosidase (Escherichia coli, UniProt Q8VNN2); test: PubChem AID 485352; assay type: functional
[4] = target: T4, Type-1 angiotensin II receptor (Homo sapiens, UniProt P30556); test: antagonism of angiotensin II type 1 receptor – cell-based, uHTS hits, selectivity assay for APJ receptor antagonist project, dose response (AID 463214); assay type: functional;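 note: antagonist potency against angiotensin II stimulated AT1 response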
T4 sequence (P30556 whole entry): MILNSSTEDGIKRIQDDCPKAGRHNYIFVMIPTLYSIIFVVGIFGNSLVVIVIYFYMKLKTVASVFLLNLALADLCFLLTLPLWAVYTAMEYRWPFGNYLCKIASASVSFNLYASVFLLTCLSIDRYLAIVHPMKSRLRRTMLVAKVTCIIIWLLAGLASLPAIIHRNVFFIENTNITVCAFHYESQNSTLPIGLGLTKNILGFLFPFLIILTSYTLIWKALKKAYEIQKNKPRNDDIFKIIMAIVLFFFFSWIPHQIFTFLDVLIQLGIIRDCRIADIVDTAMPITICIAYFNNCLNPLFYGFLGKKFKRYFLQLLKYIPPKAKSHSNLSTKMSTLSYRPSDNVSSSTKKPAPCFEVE

Cytochrome P450 2D6 = Cytochrome P450 2D6 (Homo sapiens, UniProt P10635);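 note: CYP2D6 member of a cytochrome P450 panel assay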
Cytochrome P450 2C9 = Cytochrome P450 2C9 (Homo sapiens, UniProt P11712)
[5] = target: Disintegrin and metalloproteinase domain-containing protein 17 (Homo sapiens, UniProt P78536); test: exosite inhibitors of ADAM17, dose response, biochemical (AID 743260)
[6] = inhibition of ADAM10 peptide cleavage – biochemical, FRET peptide substrate, recombinant human ADAM10, selectivity assay for ADAM17 exosite inhibitor project, dose response (AID 743259);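 note: ADAM10 enzyme cleaving a FRET peptide substrate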
[7] = Trypanosoma cruzi growth suppression in host cells – NIH3T3 host cells, beta-gal luminescence, confirmation (AID 2044); assay type: functional, cell-based;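 note: intracellular parasites grown in NIH/3T3 mouse fibroblasts as host cells; luminescent beta-galactosidase reporter signal from transgenic T. cruzi replicating inside host cells; inhibitors lower the luminescence signal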
[8] = microbe, parasite or virus in culture; assay type: functional; settings: Mycobacterium tuberculosis
[9] = NIH3T3 cell viability loss – ATP luminescence, mouse fibroblasts, counter-screen, dose response (AID 2010); assay type: functional, cell-based;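 note: cells exposed to compound for about 90 hours before reading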
[10] = target: T5, Apoptotic protease-activating factor 1 (Homo sapiens, UniProt O14727); assay type: functional
T5 sequence (O14727 whole entry): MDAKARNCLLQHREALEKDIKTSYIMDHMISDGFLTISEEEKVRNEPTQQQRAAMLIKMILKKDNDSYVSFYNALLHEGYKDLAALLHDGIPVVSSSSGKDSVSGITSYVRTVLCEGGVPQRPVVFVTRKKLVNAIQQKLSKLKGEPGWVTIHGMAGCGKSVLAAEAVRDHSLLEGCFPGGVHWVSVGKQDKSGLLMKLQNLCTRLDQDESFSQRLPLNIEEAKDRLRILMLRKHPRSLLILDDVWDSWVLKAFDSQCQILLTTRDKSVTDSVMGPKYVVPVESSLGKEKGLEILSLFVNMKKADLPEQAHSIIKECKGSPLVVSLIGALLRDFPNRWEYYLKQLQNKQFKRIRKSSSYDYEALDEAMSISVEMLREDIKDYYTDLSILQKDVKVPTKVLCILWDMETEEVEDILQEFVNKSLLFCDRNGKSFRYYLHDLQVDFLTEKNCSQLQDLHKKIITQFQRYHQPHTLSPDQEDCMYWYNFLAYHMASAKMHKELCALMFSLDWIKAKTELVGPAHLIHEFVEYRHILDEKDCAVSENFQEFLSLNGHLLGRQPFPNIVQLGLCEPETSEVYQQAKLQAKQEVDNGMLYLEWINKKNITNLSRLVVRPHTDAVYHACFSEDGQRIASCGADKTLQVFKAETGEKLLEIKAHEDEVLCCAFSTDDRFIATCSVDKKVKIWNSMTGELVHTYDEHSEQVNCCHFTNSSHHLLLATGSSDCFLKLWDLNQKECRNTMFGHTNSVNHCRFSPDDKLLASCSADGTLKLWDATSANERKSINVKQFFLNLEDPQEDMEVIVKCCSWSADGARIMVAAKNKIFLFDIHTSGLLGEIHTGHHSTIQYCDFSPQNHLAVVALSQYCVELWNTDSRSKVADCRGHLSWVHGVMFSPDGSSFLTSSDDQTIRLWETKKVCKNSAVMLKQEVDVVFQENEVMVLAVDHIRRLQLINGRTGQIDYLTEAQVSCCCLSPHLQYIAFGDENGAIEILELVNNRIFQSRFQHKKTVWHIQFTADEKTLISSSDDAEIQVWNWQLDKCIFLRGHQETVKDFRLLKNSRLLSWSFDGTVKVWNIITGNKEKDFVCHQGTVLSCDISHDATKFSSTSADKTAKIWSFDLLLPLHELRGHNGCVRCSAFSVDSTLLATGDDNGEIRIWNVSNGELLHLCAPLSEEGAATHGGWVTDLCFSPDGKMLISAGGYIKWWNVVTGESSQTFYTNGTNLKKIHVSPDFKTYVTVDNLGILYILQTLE

Paired box protein Pax-8 = Paired box protein Pax-8 (Homo sapiens, UniProt Q06710); test: PAX8 transcriptional activity inhibition in RMG-I – RMG-I cells, luciferase, cherry-pick, dose response (AID 687027); assay type: functional, cell-based;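 note: luciferase reporter driven by Pax8 target thyroperoxidase promoter measured by SteadyGlo luminescence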
[11] = general cell-killing toxicity readout – plate reader, dry powder samples, cytotoxicity control for PAX8 inhibitor project, dose response (AID 743021); assay type: functional, cell-based
[12] = blockers of HIV-1 envelope-mediated cell-cell fusion – cherry-pick, dose response (AID 652057); assay type: functional, cell-based
[13] = blockers of HIV-1 ZM109 envelope-driven cell-cell fusion – HeLa effector, CEM target cells, luciferase, cherry-pick, dose response (AID 652058); assay type: functional, cell-based;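 note: luciferase signal from HIV-1 Env mediated cell-cell fusion of effector and target cells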
[14] = HIV-1 AD8 envelope cell-cell fusion blockers – cherry-pick, dose response (AID 652062); assay type: functional, cell-based;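 note: luciferase signal from cell-cell fusion driven by HIV-1 clade B AD8 Env; potency is for inhibitors of fusion seen as a drop in luminescence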
[15] = IGROV1 cell killing – plate reader, dry powder samples, PAX8 inhibitor project, dose response (AID 743043); assay type: functional, cell-based; settings: IGROV-1
[16] = OVCAR8 cell viability loss – plate reader, dry powder samples, PAX8 project, dose response (AID 743197); assay type: functional, cell-based; settings: OVCAR-8
[17] = target: T6, COUP transcription factor 2 (Homo sapiens, UniProt P24468); test: Luminescence-based cell-based high throughput dose response assay to identify inhibitors of COUP-TFII (NR2F2).; assay type: functional;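 note: HEK293 cells transiently cotransfected with COUP-TFII expression vector and reporter; luciferase reporter luminescence driven by COUP-TFII from the pX2-168 reporter plasmid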
T6 sequence (P24468 whole entry): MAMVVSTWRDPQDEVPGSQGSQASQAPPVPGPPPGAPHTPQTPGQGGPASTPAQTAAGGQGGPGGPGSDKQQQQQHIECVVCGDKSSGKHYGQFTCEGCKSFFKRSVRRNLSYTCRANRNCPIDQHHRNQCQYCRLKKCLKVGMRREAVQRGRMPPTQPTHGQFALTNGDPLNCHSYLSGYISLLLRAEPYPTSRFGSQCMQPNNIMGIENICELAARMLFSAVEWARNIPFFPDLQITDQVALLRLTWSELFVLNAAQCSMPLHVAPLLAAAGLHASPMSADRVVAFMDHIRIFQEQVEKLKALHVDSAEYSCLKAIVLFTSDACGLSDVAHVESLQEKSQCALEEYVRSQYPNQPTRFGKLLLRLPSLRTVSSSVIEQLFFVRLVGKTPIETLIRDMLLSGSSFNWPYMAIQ

Disintegrin and metalloproteinase domain-containing protein 17, sequence (P78536 whole entry, the tested form may be a part): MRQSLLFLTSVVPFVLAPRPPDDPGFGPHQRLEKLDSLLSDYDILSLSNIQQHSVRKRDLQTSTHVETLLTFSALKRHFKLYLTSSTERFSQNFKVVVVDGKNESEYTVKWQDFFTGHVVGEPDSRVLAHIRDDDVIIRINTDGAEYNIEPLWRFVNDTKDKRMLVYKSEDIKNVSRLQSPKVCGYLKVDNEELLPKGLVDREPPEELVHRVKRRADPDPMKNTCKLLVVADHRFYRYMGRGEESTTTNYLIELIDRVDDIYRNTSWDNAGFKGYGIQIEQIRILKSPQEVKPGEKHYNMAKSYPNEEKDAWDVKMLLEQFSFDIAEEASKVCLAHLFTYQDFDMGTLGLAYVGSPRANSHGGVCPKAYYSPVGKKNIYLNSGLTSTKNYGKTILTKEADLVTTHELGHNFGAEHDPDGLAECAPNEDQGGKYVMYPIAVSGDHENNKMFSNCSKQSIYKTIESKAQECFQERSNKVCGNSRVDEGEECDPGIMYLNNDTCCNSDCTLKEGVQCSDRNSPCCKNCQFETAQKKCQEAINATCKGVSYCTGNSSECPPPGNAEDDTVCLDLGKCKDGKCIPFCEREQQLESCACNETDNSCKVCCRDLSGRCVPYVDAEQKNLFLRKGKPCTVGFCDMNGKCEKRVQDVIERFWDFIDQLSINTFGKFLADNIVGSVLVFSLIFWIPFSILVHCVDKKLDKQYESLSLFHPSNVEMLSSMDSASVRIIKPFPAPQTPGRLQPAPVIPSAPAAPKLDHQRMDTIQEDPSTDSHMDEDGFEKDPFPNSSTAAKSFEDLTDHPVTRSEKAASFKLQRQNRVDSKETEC
Paired box protein Pax-8, sequence (Q06710 whole entry): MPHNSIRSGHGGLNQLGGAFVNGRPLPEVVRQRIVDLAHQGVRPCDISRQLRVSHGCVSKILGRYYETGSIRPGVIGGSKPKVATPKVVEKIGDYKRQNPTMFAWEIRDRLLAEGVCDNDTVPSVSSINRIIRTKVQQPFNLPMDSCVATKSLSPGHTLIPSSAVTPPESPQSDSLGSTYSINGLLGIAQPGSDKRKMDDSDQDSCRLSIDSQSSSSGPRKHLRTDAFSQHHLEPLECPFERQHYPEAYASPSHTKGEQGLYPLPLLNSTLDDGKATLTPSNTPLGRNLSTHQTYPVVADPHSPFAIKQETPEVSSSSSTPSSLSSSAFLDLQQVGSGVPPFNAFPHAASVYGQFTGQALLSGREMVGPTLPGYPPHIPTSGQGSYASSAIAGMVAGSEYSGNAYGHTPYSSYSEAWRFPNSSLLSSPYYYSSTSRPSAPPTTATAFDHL
Beta-galactosidase, sequence (Q8VNN2 whole entry): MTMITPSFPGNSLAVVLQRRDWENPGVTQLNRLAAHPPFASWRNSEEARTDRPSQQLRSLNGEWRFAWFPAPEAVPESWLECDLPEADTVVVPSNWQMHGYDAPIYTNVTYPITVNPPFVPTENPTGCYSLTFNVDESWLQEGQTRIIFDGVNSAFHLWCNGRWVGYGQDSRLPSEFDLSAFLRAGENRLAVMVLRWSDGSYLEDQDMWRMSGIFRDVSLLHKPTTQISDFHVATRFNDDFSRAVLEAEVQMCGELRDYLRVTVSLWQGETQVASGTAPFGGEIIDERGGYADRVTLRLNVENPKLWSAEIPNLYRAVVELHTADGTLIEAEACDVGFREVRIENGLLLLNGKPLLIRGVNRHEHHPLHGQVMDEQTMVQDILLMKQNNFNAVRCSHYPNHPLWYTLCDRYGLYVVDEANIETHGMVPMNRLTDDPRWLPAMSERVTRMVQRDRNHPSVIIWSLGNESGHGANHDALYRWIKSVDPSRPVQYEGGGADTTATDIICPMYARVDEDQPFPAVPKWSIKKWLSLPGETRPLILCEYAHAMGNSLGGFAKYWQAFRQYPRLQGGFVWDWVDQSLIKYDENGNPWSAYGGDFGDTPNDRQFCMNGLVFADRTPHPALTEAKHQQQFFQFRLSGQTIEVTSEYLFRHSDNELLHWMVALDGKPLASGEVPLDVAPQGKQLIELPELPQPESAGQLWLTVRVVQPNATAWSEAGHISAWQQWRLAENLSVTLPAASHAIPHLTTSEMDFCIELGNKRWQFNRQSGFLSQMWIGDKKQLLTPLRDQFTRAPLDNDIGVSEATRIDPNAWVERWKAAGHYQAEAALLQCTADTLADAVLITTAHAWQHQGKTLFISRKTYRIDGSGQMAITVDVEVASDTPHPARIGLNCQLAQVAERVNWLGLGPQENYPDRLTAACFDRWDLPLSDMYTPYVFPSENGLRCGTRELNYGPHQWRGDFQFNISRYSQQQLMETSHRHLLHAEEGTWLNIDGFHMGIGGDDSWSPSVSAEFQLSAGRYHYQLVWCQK
Cytochrome P450 2C9, sequence (P11712 whole entry, the tested form may be a part): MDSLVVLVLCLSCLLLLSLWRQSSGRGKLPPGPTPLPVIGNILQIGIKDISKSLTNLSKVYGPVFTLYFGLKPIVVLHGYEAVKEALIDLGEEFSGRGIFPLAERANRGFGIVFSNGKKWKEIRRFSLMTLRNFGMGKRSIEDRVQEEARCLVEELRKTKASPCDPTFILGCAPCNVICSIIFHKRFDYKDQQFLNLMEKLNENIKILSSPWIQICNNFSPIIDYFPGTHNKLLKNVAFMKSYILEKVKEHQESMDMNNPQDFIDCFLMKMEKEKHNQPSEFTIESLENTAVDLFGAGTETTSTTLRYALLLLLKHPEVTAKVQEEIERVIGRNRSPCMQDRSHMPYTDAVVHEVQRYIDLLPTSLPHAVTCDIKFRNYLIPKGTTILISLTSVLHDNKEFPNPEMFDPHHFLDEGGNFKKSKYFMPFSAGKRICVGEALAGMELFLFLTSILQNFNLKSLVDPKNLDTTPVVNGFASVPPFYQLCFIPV
Cytochrome P450 2D6, sequence (P10635 whole entry): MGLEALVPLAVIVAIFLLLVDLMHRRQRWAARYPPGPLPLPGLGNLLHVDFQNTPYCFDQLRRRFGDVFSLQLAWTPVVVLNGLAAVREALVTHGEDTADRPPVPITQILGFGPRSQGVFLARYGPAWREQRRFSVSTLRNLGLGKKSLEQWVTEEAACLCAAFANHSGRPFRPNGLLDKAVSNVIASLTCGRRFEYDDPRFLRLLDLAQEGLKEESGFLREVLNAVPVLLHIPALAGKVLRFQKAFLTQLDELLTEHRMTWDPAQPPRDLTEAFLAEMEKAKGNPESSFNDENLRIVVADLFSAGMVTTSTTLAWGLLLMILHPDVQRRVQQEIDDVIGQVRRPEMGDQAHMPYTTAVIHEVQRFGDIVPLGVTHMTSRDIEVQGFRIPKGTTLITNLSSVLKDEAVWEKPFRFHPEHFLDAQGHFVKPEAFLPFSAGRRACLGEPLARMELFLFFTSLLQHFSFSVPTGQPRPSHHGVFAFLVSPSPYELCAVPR

CCOc1ccc(C(c2c(C)n[nH]c2O)c2c(C)n[nH]c2O)cc1OC
AC50 [1]: 0.386 µM (active) | EC50 (Protein RecA): 0.309 µM (active) | IC50 [2]: 32.9 µM (active) | IC50 [3]: 43.6 µM (active)

O=C(CCCC(=O)OCC(=O)c1ccc(Cl)cc1Cl)Nc1cc(C(F)(F)F)ccc1Cl
EC50 (Beta-galactosidase): > 40 µM (inactive) | IC50 [4]: > 40 µM (not active) | AC50 (Cytochrome P450 2D6): 12.6 µM (inconclusive) | AC50 (Cytochrome P450 2C9): inconclusive

O=C(COC(=O)/C=C/c1ccc(OC(F)F)cc1)Nc1ccc(S(=O)(=O)N2CCCC2)cc1
IC50 [5]: > 69.5 µM (inactive) | IC50 [6]: > 69.5 µM (inactive)

CC(C)(C)c1ccc(C(=O)NNc2cc(N3CCCCC3)nc(N3CCCCC3)n2)cc1
EC50 [7]: 1.7 µM (active) | CC50 [8]: > 40 µM (active) | EC50 [9]: > 60 µM (not active) | IC50 [10]: 3.59 µM (active) | IC50 [2]: 0.796 µM (active) | IC50 [3]: 0.384 µM (active)

Cc1cnc(C(=O)OC(C)C(=O)Nc2ccc3c(c2)OCCO3)cn1 (configuration not stated)
IC50 [5]: > 69.5 µM (inactive) | IC50 [6]: > 69.5 µM (inactive)

COc1ccc(NC(=O)Nc2ccc3c(c2)C(=O)N([C@@H](C)CO)C[C@@H](C)[C@H](CN(C)Cc2ccc(C(F)(F)F)cc2)O3)cc1
AC50 (Paired box protein Pax-8): 22 µM (active) | AC50 [11]: 41.7 µM (active)

COc1cccc(S(=O)(=O)N(C)C[C@@H]2Oc3cc(C#CCC(C)C)ccc3S(=O)(=O)N([C@H](C)CO)C[C@H]2C)c1
AC50 [12]: 36.2 µM (active) | AC50 [13]: 36.9 µM (active) | AC50 [14]: 8.75 µM (active)

O=C(CCN1CCCCC1)N[C@H]1CC[C@H](CCn2cc(-c3ccccc3)nn2)O[C@@H]1CO
AC50 [13]: 40.8 µM (active)

C[C@@H]1CCCCO[C@@H](CN(C)Cc2ccc(C(F)(F)F)cc2)[C@H](C)CN([C@H](C)CO)C(=O)c2cc(NS(=O)(=O)c3ccccc3)ccc2O1
AC50 (Paired box protein Pax-8): 6.14 µM (active) | AC50 [15]: 41.9 µM (active) | AC50 [16]: 34 µM (active)

COc1cccc(CC(=O)N(Cc2ccccc2)c2ccccc2C(=O)Nc2cc(OC)ccc2OC)c1
IC50 [5]: > 69.5 µM (inactive) | IC50 [6]: > 69.5 µM (inactive)

O=C(CSc1cc(Cl)ccc1Cl)N/N=C/c1ccc[nH]1
IC50 [17]: 15 µM (inactive)

COC(=O)[C@H](CC(C)C)N1Cc2nnn(Cc3ccc(C)cc3)c2-c2cc(F)ccc2S1(=O)=O
IC50 [5]: > 69.5 µM (inactive) | IC50 [6]: > 69.5 µM (inactive)
